The record followed here is patent publication US7446127B2, “Chroman carboxylic acid derivatives for the treatment of diabetes and lipid disorders” (SK Holdings Co, Ltd., priority 2003, dated 2008).

SMILES strings stand for the structures.

Series [1] deals with HF rat. Nature of the series: Insulin tolerance test (ITT) in HF rat. Type of series: in vivo, Sprague-Dawley rats. The settings on record: 30 mg/kg oral, insulin 0.25 U/kg i.p. 2 hr later. The method, then: An Oral Glucose Tolerance Test (OGTT) was performed both in db/db mice and in high fat (HF) rats after dosing 30 mg/kg/d of compounds of Examples 1 and 2 for 9 days. For OGTT and ITT studies, Sprague-Dawley rats were prepared by feeding high fat (HF) diet (60% calorie from fat) for 6 weeks. Before the study, they were matched into groups on the basis of blood glucose levels. Insulin tolerance test (ITT) was performed in HF rat which were prepared in the same manner with OGTT test animal. On the day of the study, rats were orally dosed with the testing compounds (30 mg/kg) and 2 hr later, rats were dosed with insulin (0.25 U/kg, i.p.) in 0.1% BSA solution in saline. Blood glucose of the rat was measured at 15, 30, 60, 120 min after dose.

Series [2] relates to db/db mice. Put plainly: Oral Glucose Tolerance Test (OGTT) in db/db mice. As to conditions: 30 mg/kg/d for 9 days. Type of series: in vivo. The method, then:
(§1) Mice used in this study were standard model of type II diabetes developed by Jackson Laboratories (Bar Harbor, Me.). Male, 8-week-old db/db mice were housed six per cage in hanging wire bottom cages with standard laboratory conditions. The mice had free access to normal chow (Purina Rodent Chow) and water. At the age of 11-12 weeks, mice were bled in the tail for glucose matching among the groups (n=6 per group). The grouped mice were then dosed orally with vehicle (CMC) or with compounds of formula I (30 mg/kg/d) for 7 days. Compound of formula I at 30 mg/kg/d was dosed as suspension in 0.5% CMC+0.2% Tween 80 in H2O. Fresh suspension was prepared for 8 days dosing and kept in a refrigerator. The suspension was administered by oral gavage daily in the morning. The control group received vehicle (dose 10 mL/kg). Blood glucose concentrations were monitored at basal and 3 hr post dose on day 4 and 8. For blood sampling, mice were placed in a restrainer and drop of blood was obtained by nick in the tip of the tail. Blood glucose concentrations were determined either by putting a drop of blood on a glucose strip for analysis by a glucometer or using a 10 μL plasma sample in a YSI (Yellow Spring Instruments, OH) analyzer. Results are expressed as absolute blood glucose concentrations (mg/dL) and % reduction that is achieved reduction relative to vehicle treated control group. Animals having more than 300 mg/dL of blood glucose were used for testing. Statistical significance (p<0.05) is given versus the appropriate sample in vehicle treated animals. On day 7, the mice were fasted overnight for 18 hrs and were bled in the tail for the glucose level checking then dosed with the testing compounds (30 mg/kg/d). After 2 hr, blood samples were taken and the rats were dosed with 10% glucose in water (10 ml/kg) orally and blood glucose was monitored at 15, 30, 60, 90 and 120 min after dosing. The blood samples were centrifuged and plasma samples were collected and analyzed for insulin, Tg and FFA. An Oral Glucose Tolerance Test (OGTT) was performed both in db/db mice and in high fat (HF) rats after dosing 30 mg/kg/d of compounds of Examples 1 and 2 for 9 days. For OGTT and ITT studies, Sprague-Dawley rats were prepared by feeding high fat (HF) diet (60% calorie from fat) for 6 weeks. Before the study, they were matched into groups on the basis of blood glucose levels.

For series [3], the system named is differentiated 3T3-L1 adipocytes. Put plainly: Glucose transport assay (2-deoxy-D-glucose uptake). The class given is cell-based. As to conditions: 48 hr; for Fold Stimulation (50 μM) of 2-deoxy-D-glucose uptake, Insulin + Compound: 50 μM compound + 100 nM insulin; for fold induction at 50 µM: Mus musculus, 50 μM compound alone, read-out: Fold Stimulation (50 μM) of 2-deoxy-D-glucose uptake, Compound only. How it is done: 3T3-L1 fibroblasts (American Type Culture Collection) were plated and grown for 2 days postconfluence in Dulbecco's modified Eagle's medium (DMEM; 4,500 mg/L glucose, HyClone) supplemented 10% FBS, 10 μg/mL penicillin and streptomycin in an atmosphere of 5% CO2 at 37° C. Adipocyte differentiation was then induced using standard protocol. After 48 hr, the differentiation medium was replaced with maintenance medium containing DMEM supplemented with 10% FBS. The maintenance medium was changed every 3 days until the cells were utilized for experimentation. Glucose transport activity was measured in the presence or absence of insulin and the protocol was modified from Kletzien, R F et al. (1992) Molecular Pharmacology 41:393-398. Briefly, differentiated 3T3-L1 adipocytes were incubated with vehicle (DMSO), insulin (100 nM) alone, test compound (50 μM) alone and a combination of insulin (100 nM)+test compound (50 μM) for 48 hr. Medium was changed twice a day in the presence of compound. Glucose uptake was measured using 2-Deoxy-D-[1−^3H] glucose as label after 90 min incubation with each compound. […] In the series of compounds, one of the best result was obtained with 7-[2-(5-methyl-2-phenyl-4-oxazolyl)-ethoxy]-chroman-3-carboxylic acid (Example 1).

The subject of series [4] is high fat (HF) rats. Put plainly: Oral Glucose Tolerance Test (OGTT) in high fat (HF) rats. Type of series: in vivo, Sprague-Dawley rats. The settings on record: 30 mg/kg/d for 9 days. How it is done:
An Oral Glucose Tolerance Test (OGTT) was performed both in db/db mice and in high fat (HF) rats after dosing 30 mg/kg/d of compounds of Examples 1 and 2 for 9 days. For OGTT and ITT studies, Sprague-Dawley rats were prepared by feeding high fat (HF) diet (60% calorie from fat) for 6 weeks. Before the study, they were matched into groups on the basis of blood glucose levels.

The nature of series [5]: Solubility in dosing vehicle. Type of series: physicochemical. From the text: It appeared that compounds of Examples 1 and 2 were not soluble in 0.5% CMC vehicle.
For series [6], the system named is db/db mice. Put plainly: Efficacy test for blood glucose lowering (db/db mice). The class given is in vivo. As to conditions: 30 mg/kg/d oral. How it is done:
as §1, with “FFA.” for “FFA. An Oral Glucose Tolerance Test (OGTT) was performed both in db/db mice and in high fat (HF) rats after dosing 30 mg/kg/d of compounds of Examples 1 and 2 for 9 days. For OGTT and ITT studies, Sprague-Dawley rats were prepared by feeding high fat (HF) diet (60% calorie from fat) for 6 weeks. Before the study, they were matched into groups on the basis of blood glucose levels.”

The test system of series [7] is STZ rat. Put plainly: Blood glucose lowering effect in STZ rat. Type of series: in vivo. The settings on record: STZ rat (data not shown).

For the compound `Cc1oc(-c2ccc(-c3ccccc3)cc2)nc1CCOc1ccc2c(c1)OCC(C(=O)O)C2` (stereo not shown) [Example 2, 7-[2-(5-Methyl-2-(4-phenyl)phenyl-4-oxazolyl)ethoxy]chromane-3-carboxylic acid], the “AUC of Glucose in high fat rat, % reduction” value in series [1] came out at 4.2%; in series [4], 10.1%. In addition, the “AUC of Glucose in high fat rat, Observed value” in series [1] (control 13359) is listed as 12796 mg/dl × 120 min; in series [4] (control 14053), 12631 mg/dl × 120 min. Moreover, the “AUC of Glucose in db/db, % reduction” value in series [2] worked out at 14.0%. Moreover, the “AUC of Glucose in db/db, Observed value” in series [2] (control 40858) stood at 32406 mg/dl × 120 min. The “Fold Stimulation (50 μM) of 2-deoxy-D-glucose uptake, Insulin + Compound” value (“Fold Stimulation (50 μM)” below) in series [3] is on record as 6.4 fold. In series [3], the fold induction at 50 µM worked out at 1.5. The “solubility in 0.5% CMC vehicle” value in series [5] is given as “not soluble”. Moreover, the “Fatty acid % reduction” value in series [6] (plasma) was −21.1%. Moreover, in series [6] (plasma), the Insulin % reduction was −72.7%. The “Glucose Max % efficacy” value in series [6] (suspension in 0.5% CMC + 0.2% Tween 80) is recorded as 70.3%. Further, the “Glucose Observed value” in series [6] (suspension in 0.5% CMC + 0.2% Tween 80, control 261.2) stood at 148.3 mg/dL. Besides, the “blood glucose lowering effect” value in series [7] is “did not reduce blood glucose”.

`Cc1oc(-c2ccc(F)cc2)nc1CCOc1ccc2c(c1)OCC(C(=O)O)C2` (stereo not shown) [Example 3]: in series [3], the “Fold Stimulation (50 μM)” value is given as 5.9 fold and the fold induction at 50 µM was 1.3.

On to `Cc1oc(-c2cccs2)nc1CCOc1ccc2c(c1)OCC(C(=O)O)C2` (stereo not shown) [Example 4, 7-[2-(5-methyl-2-thien-2-yl-1,3-oxazol-4-yl)ethoxy]chromane-3-carboxylic acid], for which, in series [3], the “Fold Stimulation (50 μM)” value stood at 7.6 fold and the fold induction at 50 µM came to 1.5.

In the case of `O=C(O)C1COc2cc(OCCc3nc(-c4ccccc4)oc3-c3ccccc3)ccc2C1` (stereo not shown) [Example 5], in series [3], the “Fold Stimulation (50 μM)” value is listed as 8.1 fold and the fold induction at 50 µM worked out at 1.7.

Regarding `Cc1oc(-c2ccccc2)nc1COc1ccc2c(c1)OCC(C(=O)O)C2` (stereo not shown) [Example 6, 7-[(2-phenyl-5-methyl-1,3-oxazol-4-yl)methoxy]chromane-3-carboxylic acid], in series [3], the “Fold Stimulation (50 μM)” value came out at 10.7 fold and the fold induction at 50 µM came out at 1.4.

As to `Cc1oc(-c2ccccc2)nc1CCCOc1ccc2c(c1)OCC(C(=O)O)C2` (stereo not shown) [Example 7, 7-[3-(5-Methyl-2-phenyl-4-oxazolyl)propoxy]chromane-3-carboxylic acid], in series [3], the “Fold Stimulation (50 μM)” value was 6.5 fold and the fold induction at 50 µM is 1.4.

For the compound `Cc1oc(-c2ccccc2)nc1CCOc1ccc2c(c1)OCC(C(=O)NS(=O)(=O)c1ccccc1)C2` (stereo not shown) [Example 8], in series [3], the “Fold Stimulation (50 μM)” value came out at 8.8 fold and the fold induction at 50 µM turned out to be 1.5.

For `Cc1oc(-c2ccccc2)nc1CCOc1ccc2c(c1)OCC(C(=O)NS(C)(=O)=O)C2` (stereo not shown) [Example 9], in series [3], the “Fold Stimulation (50 μM)” value turned out to be 6.2 fold and the fold induction at 50 µM stood at 1.2.

Consider `Cc1oc(-c2ccc(Br)cc2)nc1COc1ccc2c(c1)OCC(C(=O)O)C2` (stereo not shown) [Example 10, 7-[(2-(4-bromophenyl)-5-methyl-1,3-oxazol-4-yl)methoxy]chromane-3-carboxylic acid], for which, in series [3], the “Fold Stimulation (50 μM)” value stood at 5.1 fold and the fold induction at 50 µM was 1.

For `Cc1oc(-c2ccc(-c3ccccc3)cc2)nc1COc1ccc2c(c1)OCC(C(=O)O)C2` (stereo not shown) [Example 11], in series [3], the “Fold Stimulation (50 μM)” value was found to be 4.6 fold and the fold induction at 50 µM stood at 1.3.

On to `COC(=O)C1COc2cc(OCCc3nc(-c4ccccc4)oc3C)ccc2C1` (stereo not shown) [Example 12, Methyl 7-[2-(5-Methyl-2-phenyl-4-oxazolyl)ethoxy]chromane-3-carboxylate], for which, in series [3], the “Fold Stimulation (50 μM)” value amounted to 6.0 fold and the fold induction at 50 µM amounted to 1.1.

Regarding `Cc1oc(-c2ccccc2)nc1CCOc1ccc2c(c1)OCC(C(N)=O)C2` (stereo not shown) [Example 13, 7-[2-(5-Methyl-2-phenyl-4-oxazolyl)ethoxy]chromane-3-carboxylic acid amide], in series [3], the “Fold Stimulation (50 μM)” value is recorded as 8.8 fold and the fold induction at 50 µM worked out at 1.7.

`Cc1oc(-c2ccccc2)nc1CCOc1ccc2c(c1)OCC(CC(=O)O)C2` (stereo not shown) [Example 14, {7-[2-(5-Methyl-2-phenyl-oxazol-4-yl)-ethoxy]-chroman-3-yl}-acetic acid]: in series [3], the “Fold Stimulation (50 μM)” value was determined as 6.9 fold and the fold induction at 50 µM was found to be 1.4.

On to `CCc1ccc(CCOc2ccc(CC3SC(=O)NC3=O)cc2)nc1` (stereo not shown) [Pioglitazone, reference compound], for which, in series [3], the “Fold Stimulation (50 μM)” value stood at 7.6 fold and the fold induction at 50 µM amounted to 1.9.
